Source: patent US20260354380A1, “PYRAZOLO PESTICIDAL COMPOUNDS” (BASF SE, priority 2022, published 2026)

Columns and labels:
Format in all cases: in vivo
Spodoptera eridania = experiment: Action on Southern Armyworm (Spodoptera eridania), 2nd Instar Larvae; details: 300 ppm, 2nd instar larvae, 4 days after treatment
Procedure: Example B7: Action on Southern Armyworm (Spodoptera eridania), 2nd Instar Larvae
The active compounds were formulated by a Tecan liquid handler in 100% cyclohexanone as a 10,000 ppm solution supplied in tubes. The 10,000 ppm solution was serially diluted in 100% cyclohexanone to make interim solutions. These served as stock solutions for which final dilutions were made by the Tecan in 50% acetone: 50% water (v/v) into 10 or 20 ml glass vials. A nonionic surfactant (Kinetic®) was included in the solution at a volume of 0.01% (v/v). The vials were then inserted into an automated electrostatic sprayer equipped with an atomizing nozzle for application to plants/insects.
Lima bean plants (variety Sieva) were grown 2 plants to a pot and selected for treatment at the 1st true leaf stage. Test solutions were sprayed onto the foliage by an automated electrostatic plant sprayer equipped with an atomizing spray nozzle. The plants were dried in the sprayer fume hood and then removed from the sprayer. Each pot was placed into perforated plastic bags with a zip closure. About 10 to 11 armyworm larvae were placed into the bag and the bags zipped closed. Test plants were maintained in a growth room at about 25 °C and about 20-40% relative humidity for 4 days, avoiding direct exposure to fluorescent light (24 hour photoperiod) to prevent trapping of heat inside the bags. Mortality and reduced feeding were assessed 4 days after treatment, compared to untreated control plants.
(§1) Compounds disclosed in the document WO2021013561 were prepared according to procedures described therein and their pesticidal activities were determined by procedure analogues to the procedures as described above in examples B6 and B7.

Anthonomus grandis = experiment: Action on Boll Weevil (Anthonomus grandis); details: 800 ppm, egg and larval mortality, 5 days
Procedure: Example B3: Action on Boll Weevil (Anthonomus grandis)
For evaluating control of boll weevil (Anthonomus grandis) the test unit consisted of 96-well-microtiter plates containing an insect diet and 5-10 A. grandis eggs.
The compounds were formulated using a solution containing 75% (v/v) water and 25% (v/v) DMSO. Different concentrations of formulated compounds were sprayed onto the insect diet at 5 μl, using a custom-built micro atomizer, at two replications.
After application, microtiter plates were incubated at about 25±1 °C and about 75±5% relative humidity for 5 days. Egg and larval mortality were then visually assessed.

Plutella xylostella = experiment: Action on Diamond Back Moth (Plutella xylostella), cabbage leaf dip, 3rd instar larvae; details: 300 ppm, 3rd instar larvae, 72 hours after treatment
Procedure: Example B6: Action on Diamond Back Moth (Plutella xylostella)
The active compound is dissolved at the desired concentration in a mixture of 1:1 (v/v) distilled water:acetone. Surfactant (Kinetic® HV) is added at a rate of 0.01% (v/v). The test solution is prepared at the day of use.
Leaves of cabbage were dipped in test solution and air-dried. Treated leaves were placed in petri dishes lined with moist filter paper and inoculated with ten 3rd instar larvae. Mortality was recorded 72 hours after treatment. Feeding damages were also recorded using a scale of 0-100%.
as §1

Aedes aegypti = experiment: whole plant or invertebrate; details: for mortality in comparison with untreated controls: 800 ppm, larvae, 2 days
Procedure: Example B1: Action on Yellow Fever Mosquito (Aedes aegypti)
For evaluating control of yellow fever mosquito (Aedes aegypti) the test unit consisted of 96-well-microtiter plates containing 200 μl of tap water per well and 5-15 freshly hatched A. aegypti larvae.
The active compounds or mixtures were formulated using a solution containing 75% (v/V) water and 25% (v/v) DMSO. Different concentrations of formulated compounds or mixtures were sprayed onto the insect diet at 2.5 μl, using a custom-built micro atomizer, at two replications. For experimental mixtures in these tests identical volumes of both mixing partners at the desired concentrations respectively, were mixed together.
After application, microtiter plates were incubated at 28±1 °C, 80±5% RH for 2 days. Larval mortality was then visually assessed.

Heliothis virescens = experiment: Action on Tobacco Budworm (Heliothis virescens); details: 800 ppm, egg and larval mortality, 5 days
Procedure: Example B5: Action on Tobacco Budworm (Heliothis virescens)
For evaluating control of tobacco budworm (Heliothis virescens) the test unit consisted of 96-well-microtiter plates containing an insect diet and 15-25 H. virescens eggs.
The compounds were formulated using a solution containing 75% v/v water and 25% v/v DMSO. Different concentrations of formulated compounds were sprayed onto the insect diet at 10 μl, using a custom-built micro atomizer, at two replications.
After application, microtiter plates were incubated at about 28±1 °C and about 80±5% relative humidity for 5 days. Egg and larval mortality were then visually assessed.

SMILES | mortality in comparison with untreated controls (Spodoptera eridania) | mortality in comparison with untreated controls (Anthonomus grandis) | mortality in comparison with untreated controls (Plutella xylostella) | mortality in comparison with untreated controls (Aedes aegypti) | mortality in comparison with untreated controls (Heliothis virescens) | mortality at 300 ppm (Spodoptera eridania; Spodoptera eridania, 96 h, read-out: mortality in comparison with untreated controls) | mortality at 800 ppm (Anthonomus grandis; Anthonomus grandis, 120 h, read-out: mortality in comparison with untreated controls) | mortality at 300 ppm (Plutella xylostella; Plutella xylostella, foliar, read-out: mortality in comparison with untreated controls) | mortality at 800 ppm (Aedes aegypti; Aedes aegypti, 48 h, read-out: mortality in comparison with untreated controls) | mortality at 800 ppm (Heliothis virescens; Heliothis virescens, 120 h, read-out: mortality in comparison with untreated controls)
Cc1ccc(C(C)C)c(N2C(=O)CSC2=NC(=O)Nc2ccc(-n3cc(NC(=O)c4ccc(I)cc4)c(C)n3)cc2)c1 [Example C-71] | at least 75% | at least 75% | at least 75% | at least 50% | at least 75% | – | – | – | – | –
Cc1ccc(C(=O)Nc2cn(-c3ccc(NC(=O)N=C4SCC(=O)N4c4cc(C)ccc4C(C)C)cc3)nc2C)cc1 [Example C-49] | at least 75% | at least 75% | at least 75% | at least 50% | at least 75% | – | – | – | – | –
Cc1ccc(C(C)C)c(N2C(=O)CSC2=NC(=O)Nc2ccc(-n3cc(NC(=O)c4ccc(C5CC5(F)F)cc4)c(C)n3)cc2)c1 (racemic) [Example C-65] | at least 75% | at least 75% | at least 75% | at least 50% | at least 75% | – | – | – | – | –
Cc1ccc(C(C)C)c(N2C(=O)CSC2=NC(=O)Nc2ccc(-n3cc(NC(=O)c4cc(Cl)cs4)c(C)n3)cc2)c1 [Example C-40] | at least 75% | at least 75% | at least 75% | at least 50% | at least 75% | – | – | – | – | –
Cc1nn(-c2ccc(NC(=O)N=C3SCC(=O)N3c3ccccc3C(C)C)cc2)cc1NC(=O)c1ccc(OC(F)(F)F)cc1 [Example C-8] | at least 75% | at least 75% | at least 75% | at least 50% | at least 75% | – | – | – | – | –
Cc1csc(C(=O)Nc2cn(-c3ccc(NC(=O)/N=C4\SCC(=O)N4c4cc(C)ccc4C(C)C)cc3)nc2C)c1 [Example C-93] | at least 75% | at least 75% | at least 75% | at least 50% | at least 75% | – | – | – | – | –
Cc1ccc(C(C)C)c(N2C(=O)CS/C2=N\C(=O)Nc2ccc(-n3cc(NC(=O)c4ccc(OC(F)(F)F)cc4)c(C)n3)cc2C#N)c1 [Example C-13] | at least 75% | at least 75% | at least 75% | at least 50% | at least 75% | – | – | – | – | –
Cc1ccc(C(C)C)c(N2C(=O)CS/C2=N\C(=O)Nc2ccc(-n3cc(NC(=O)c4ccc(CBr)cc4)c(C)n3)cc2)c1 [Example C-31] | at least 75% | at least 75% | at least 75% | at least 50% | at least 75% | – | – | – | – | –
Cc1ccc(C(C)C)c(N2C(=O)CSC2=NC(=O)Nc2ccc(-n3cc(NC(=O)c4ccc(C5(F)CC5)cc4)c(C)n3)cc2)c1 [Example C-88] | at least 75% | at least 75% | at least 75% | at least 50% | at least 75% | – | – | – | – | –
Cc1ccc(C(C)C)c(N2C(=O)CSC2=NC(=O)Nc2ccc(-n3cc(NC(=O)c4ccncc4)c(C)n3)cc2)c1 [Example C-59] | at least 75% | at least 75% | at least 75% | at least 50% | at least 75% | – | – | – | – | –
Cc1ccc(C(C)C)c(N2C(=O)CS/C2=N\C(=O)Nc2ccc(-n3nc(C)c(NC(=O)c4ccc(OC(F)(F)F)cc4)c3C3CC3)cc2)c1 [Example C-5, N-[5-cyclopropyl-1-[4-[[(Z)-[3-(2-isopropyl-5-methyl-phenyl)-4-oxo-thiazolidin-2-ylidene]carbamoyl]amino]phenyl]-3-methyl-pyrazol-4-yl]-4-(trifluoromethoxy)benzamide] | – | – | – | – | – | ≥ 75% | ≥ 75% | ≥ 75% | ≥ 50% | ≥ 75%
Cc1ccc(C(C)C)c(N2C(=O)CS/C2=N\C(=O)Nc2ccc(-n3nc(C)c(NC(=O)c4ccc(OC(F)(F)F)cc4)c3C)cc2)c1 [Example C-15] | at least 75% | at least 75% | at least 75% | at least 50% | at least 75% | – | – | – | – | –
COc1ccc(C(=O)Nc2cn(-c3ccc(NC(=O)/N=C4\SCC(=O)N4c4cc(C)ccc4C(C)C)cc3)nc2C)cc1 [Example C-32] | at least 75% | at least 75% | at least 75% | at least 50% | at least 75% | – | – | – | – | –
Cc1ccc(C(C)C)c(N2C(=O)CS/C2=N\C(=O)Nc2ccc(-n3nc(C)c(NC(=O)c4ccc(OC(F)(F)F)cc4)c3C)cc2C2CC2)c1 [Example C-96] | at least 75% | at least 75% | at least 75% | at least 50% | at least 75% | – | – | – | – | –
Cc1ccc(C(C)C)c(N2C(=O)CS/C2=N\C(=O)Nc2ccc(-n3cc(NC(=O)c4ccc(C(C)(F)F)cc4)c(C)n3)cc2)c1 [Example C-36] | at least 75% | at least 75% | at least 75% | at least 50% | at least 75% | – | – | – | – | –
Cc1ccc(C(C)C)c(N2C(=O)CSC2=NC(=O)Nc2ccc(-n3cc(NC(=O)c4ccc(S(=O)(=O)C(F)(F)F)cc4)c(C)n3)cc2)c1 [Example C-79] | at least 75% | at least 75% | at least 75% | at least 50% | at least 75% | – | – | – | – | –
